*1 amine or outer side, *2 acyl side, *3 side chain or, on linkers, in order; H or OH if unused. Where a SMILES comes first, the peptide text is derived from it. Bridges are numbered along the chain shown (N, C = ends). [ ]: non-standard residue; d: D form. ξ: configuration not given here. Trp(1-CH2COOH) = N[C@@H](Cc1cn(CC(=O)O)c2ccccc12)C(=O)O; Phe(3,4,5-F3) = N[C@@H](Cc1cc(F)c(F)c(F)c1)C(=O)O; Phe(3,4-F2) = N[C@@H](Cc1ccc(F)c(F)c1)C(=O)O; Trp(1-Me) = Cn1cc(C[C@H](N)C(=O)O)c2ccccc21; d(cisHyp) = O=C(O)[C@H]1C[C@@H](O)CN1; Bta = N[C@@H](Cc1csc2ccccc12)C(=O)O; Hyp = O=C(O)[C@@H]1C[C@@H](O)CN1; NMeF = CN[C@@H](Cc1ccccc1)C(=O)O; X1 = O=C([C@H]1COCCN1[*:1])[*:2]; αMeF = C[C@](N)(Cc1ccccc1)C(=O)O; dHyp = O=C(O)[C@H]1C[C@H](O)CN1; NMehSer = CN[C@@H](CCO)C(=O)O; NMeNle = CCCC[C@H](NC)C(=O)O; Pip = O=C(O)[C@@H]1CCCCN1; dPip = O=C(O)[C@H]1CCCCN1; hSer = N[C@@H](CCO)C(=O)O; NMeA = CN[C@@H](C)C(=O)O; Orn = NCCC[C@H](N)C(=O)O; Dab = NCC[C@H](N)C(=O)O; Dap = NC[C@H](N)C(=O)O; ξP = O=C(O)C1CCCN1; ξC = NC(CS)C(=O)O

T1 sequence (Q9NZQ7 with tags, fused parts or gaps): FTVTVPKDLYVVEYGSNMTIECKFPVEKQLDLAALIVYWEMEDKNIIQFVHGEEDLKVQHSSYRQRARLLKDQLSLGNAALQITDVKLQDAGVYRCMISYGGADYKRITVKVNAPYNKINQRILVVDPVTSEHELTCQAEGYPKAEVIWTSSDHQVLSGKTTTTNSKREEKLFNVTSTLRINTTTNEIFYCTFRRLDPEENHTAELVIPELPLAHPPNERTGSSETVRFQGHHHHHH

The assay concerns the target T1, Human PD-L1/PD-1 (Homo sapiens, UniProt Q9NZQ7).
T1 construct: TVMV protease cleavage site (C); made in house; host or cells: HEK293T cells
In words: HTRF Human PD-L1/PD-1 binding assay (PD-1-Ig/PD-L1-His). Particulars: PD-L1-His 10 nM, PD-1-Ig 20 nM; class symbol; read-out: HTRF Human PD-L1/PD-1 Binding Assay IC50 Range. The essentials: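 Soluble HEK293T-expressed proteins: hPD-L1-His 10 nM, hPD-1-Ig 20 nM final. Cpd + PD-L1 15 min, + PD-1 15 min, + Eu anti-Ig 1 nM/APC anti-His 20 nM 30 min. Buffer dPBS, 0.1% BSA, 0.05% Tween-20. TR-FRET 665/620.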
As to `CCCC[C@H]1C(=O)N(C)[C@@H](CCCC)C(=O)N[C@@H](CN)C(=O)N[C@H](C(N)=O)CSCC(=O)N[C@@H](Cc2ccc(O)cc2)C(=O)N(C)[C@@H](C)C(=O)N[C@@H](CC(N)=O)C(=O)N2CCC[C@H]2C(=O)N[C@@H](CN)C(=O)N[C@@H](CC(C)C)C(=O)N2C[C@H](O)C[C@H]2C(=O)N[C@@H](Cc2c[nH]c3ccccc23)C(=O)N[C@@H](CO)C(=O)N[C@@H](Cc2cn(CC(=O)O)c3ccccc23)C(=O)N1C` [Example 6140], the IC50 fell in the range of 1 to 9.9 nM.

On to `CCCC[C@H]1C(=O)N(C)[C@@H](CCCC)C(=O)N[C@@H](CCC(=O)O)C(=O)NC(C(=O)NCC(N)=O)CSCC(=O)N[C@@H](Cc2ccc(O)cc2)C(=O)N(C)[C@@H](C)C(=O)N[C@@H](CC(N)=O)C(=O)N2CCC[C@H]2C(=O)N[C@@H](CC(N)=O)C(=O)N[C@@H](CC(C)C)C(=O)N2C[C@H](O)C[C@H]2C(=O)N[C@@H](Cc2c[nH]c3ccccc23)C(=O)N[C@@H](CC(=O)O)C(=O)N[C@@H](Cc2c[nH]c3ccccc23)C(=O)N1C` (stereo partly drawn) [Example 9173] ({CH2CO}-Y[NMeA]NPNL[Hyp]WDW[NMeNle][NMeNle]E[ξC]G-NH2; thioether N-14), for which the IC50 lay within 100 to 990 nM.

Turning to `CCCC[C@H]1C(=O)N(C)[C@@H](CCCC)C(=O)N[C@@H](CC(C)C)C(=O)N[C@H](C(N)=O)CSCC(=O)N[C@@H](Cc2ccc(O)cc2)C(=O)N(C)[C@@H](C)C(=O)N[C@@H](CC(N)=O)C(=O)N2CCC[C@H]2C(=O)N[C@@H](CN)C(=O)N[C@@H](CC(C)C)C(=O)N2C[C@H](O)C[C@H]2C(=O)N[C@@H](Cc2c[nH]c3ccccc23)C(=O)N[C@@H](CCC(=O)O)C(=O)N[C@@H](Cc2cn(CC(=O)O)c3ccccc23)C(=O)N1C` [Example 6203] ({CH2CO}-Y[NMeA]NP[Dap]L[Hyp]WE[Trp(1-CH2COOH)][NMeNle][NMeNle]LC-NH2; thioether N-14), the IC50 was in the range of 1 to 9.9 nM.

For `CCCC[C@H]1C(=O)N2CCC[C@@H]2C(=O)N[C@@H](CC(=O)O)C(=O)N[C@@H](C(C)C)C(=O)N[C@@](C)(Cc2ccccc2)C(=O)N[C@@H](Cc2ccc(O)cc2)C(=O)N2CCCC[C@@H]2C(=O)N[C@@H](Cc2c[nH]c3ccccc23)C(=O)N[C@@H](Cc2ccc(O)cc2)C(=O)N[C@@H](CC(C)C)C(=O)N[C@H](C(=O)NCC(N)=O)CSCC(=O)N[C@@H](Cc2ccccc2)C(=O)N(C)[C@@H](Cc2ccccc2)C(=O)N1C` [Example 3220] ({CH2CO}-F[NMeF][NMeNle][dP]DV[αMeF]Y[dPip]WYLCG-NH2; thioether N-13), the IC50 fell in the range of 10 to 99.9 nM.

In the case of `CCCC[C@H]1C(=O)N(C)[C@@H](CCCC)C(=O)N[C@@H](CC(C)C)C(=O)NC(C(=O)NCC(N)=O)CSCC(=O)N[C@@H](Cc2ccc(O)cc2)C(=O)N(C)[C@@H](C)C(=O)N[C@@H](CC(N)=O)C(=O)N2CCC[C@H]2C(=O)N[C@@H](CC(N)=O)C(=O)N[C@@H](CC(C)C)C(=O)N2CCC[C@H]2C(=O)N[C@@H](Cc2c[nH]c3ccccc23)C(=O)N[C@@H](CO)C(=O)N[C@@H](Cc2c[nH]c3ccccc23)C(=O)N1C` (stereo partly drawn) [Example 9159] ({CH2CO}-Y[NMeA]NPNLPWSW[NMeNle][NMeNle]L[ξC]G-NH2; thioether N-14), the IC50 lay within 1 to 9.9 nM.

In the case of `CCCC[C@H]1C(=O)N(C)[C@@H](CCCC)C(=O)N[C@@H](CCC(=O)O)C(=O)N[C@H](C(=O)NCC(N)=O)CSCC(=O)N[C@@H](Cc2ccc(O)cc2)C(=O)N(C)[C@@H](C)C(=O)N[C@@H](CC(=O)O)C(=O)N2CCCC2C(=O)N[C@@H](CN)C(=O)N[C@@H](CCC(=O)O)C(=O)N2C[C@H](O)C[C@H]2C(=O)N[C@@H](Cc2c[nH]c3ccccc23)C(=O)N[C@@H](CCN)C(=O)N[C@@H](Cc2cn(CC(=O)O)c3ccccc23)C(=O)N1C` (stereo partly drawn) [Example 6172] ({CH2CO}-Y[NMeA]D[ξP][Dap]E[Hyp]W[Dab][Trp(1-CH2COOH)][NMeNle][NMeNle]ECG-NH2; thioether N-14), the IC50 lay within 1 to 9.9 nM.

Turning to `CCCC[C@H]1C(=O)N2CCC[C@@H]2C(=O)N[C@@H](CC(=O)O)C(=O)N[C@@H](C(C)C)C(=O)N(C)[C@@H](Cc2ccccc2)C(=O)N[C@@H](CC(=O)O)C(=O)N2C[C@H](O)C[C@@H]2C(=O)N[C@@H](Cc2c[nH]c3ccccc23)C(=O)N[C@@H](Cc2ccc(O)cc2)C(=O)N[C@@H](CCO)C(=O)N[C@H](C(=O)NCC(N)=O)CSCC(=O)N[C@@H](Cc2cc(F)c(F)c(F)c2)C(=O)N(C)[C@@H](Cc2ccccc2)C(=O)N1C` [Example 10172] ({CH2CO}-[Phe(3,4,5-F3)][NMeF][NMeNle][dP]DV[NMeF]D[d(cisHyp)]WY[hSer]CG-NH2; thioether N-13), the IC50 was 10 to 99.9 nM.

For `COCC[C@H]1C(=O)N2C[C@@H](O)C[C@@H]2C(=O)N[C@@H](CC(=O)O)C(=O)N[C@@H](C(C)C)C(=O)N(C)[C@@H](Cc2ccccc2)C(=O)N[C@@H](Cc2ccc(O)cc2)C(=O)N2C[C@@H](O)C[C@@H]2C(=O)N[C@@H](Cc2c[nH]c3ccccc23)C(=O)N[C@@H](Cc2ccc(O)cc2)C(=O)N[C@@H](CCCN)C(=O)N[C@H](C(=O)NCC(N)=O)CSCC(=O)N[C@@H](Cc2ccc(F)c(F)c2)C(=O)N(C)[C@@H](Cc2ccccc2)C(=O)N1C` [Example 9237] ({CH2CO}-[Phe(3,4-F2)][NMeF][NMehSer](Me)[dHyp]DV[NMeF]Y[dHyp]WY[Orn]CG-NH2; thioether N-13), the IC50 lay within 1 to 9.9 nM.

Turning to `CCCC[C@H]1C(=O)N(C)[C@@H](CCOC)C(=O)N[C@@H](CCC(=O)O)C(=O)N[C@H](C(=O)NCC(N)=O)CSCC(=O)N[C@@H](Cc2ccc(O)cc2)C(=O)N(C)[C@@H](C)C(=O)N[C@@H](CC(=O)O)C(=O)N2CCC[C@H]2C(=O)N[C@@H](Cc2c[nH]cn2)C(=O)N[C@@H](CCC(N)=O)C(=O)N2C[C@H](O)C[C@H]2C(=O)N[C@@H](Cc2c[nH]c3ccccc23)C(=O)N[C@@H](CO)C(=O)N[C@@H](Cc2c[nH]c3ccccc23)C(=O)N1C` [Example 10142] ({CH2CO}-Y[NMeA]DPHQ[Hyp]WSW[NMeNle][NMehSer](Me)ECG-NH2; thioether N-14), the IC50 was in the range of 10 to 99.9 nM.

For `CCCC[C@H]1C(=O)N(C)[C@@H](CCCC)C(=O)N[C@@H](C)C(=O)N[C@H](C(=O)NCC(N)=O)CSCC(=O)N[C@@H](Cc2ccc(O)cc2)C(=O)N2CCCC[C@H]2C(=O)N[C@@H](CC(=O)O)C(=O)N2CCC[C@H]2C(=O)N[C@@H](Cc2cnc[nH]2)C(=O)N[C@@H](CCC(N)=O)C(=O)N2C[C@H](O)C[C@H]2C(=O)N[C@@H](Cc2c[nH]c3ccccc23)C(=O)N[C@@H](CO)C(=O)N[C@@H](Cc2cn(C)c3ccccc23)C(=O)N1C` [Example 1502] ({CH2CO}-Y[Pip]DPHQ[Hyp]WS[Trp(1-Me)][NMeNle][NMeNle]ACG-NH2; thioether N-14), the IC50 is 10 to 99.9 nM.

Turning to `CCCC[C@H]1C(=O)N2C[C@H](O)C[C@@H]2C(=O)N[C@@H](CC(=O)O)C(=O)N[C@@H](C(C)C)C(=O)N(C)[C@@H](Cc2ccccc2)C(=O)N[C@@H](CCC(=O)O)C(=O)N2CCOC[C@@H]2C(=O)N[C@@H](Cc2c[nH]c3ccccc23)C(=O)N[C@@H](Cc2ccc(O)cc2)C(=O)N[C@@H](CCOC)C(=O)N[C@H](C(=O)NCC(N)=O)CSCC(=O)N[C@@H](Cc2cc(F)c(F)c(F)c2)C(=O)N(C)[C@@H](Cc2ccccc2)C(=O)N1C` [Example 10178] ({CH2CO}-[Phe(3,4,5-F3)][NMeF][NMeNle][d(cisHyp)]DV[NMeF]E[X1]WY[hSer](Me)CG-NH2; thioether N-13), the IC50 lay in the range of 1 to 9.9 nM.

In the case of `CCCC[C@H]1C(=O)N(C)[C@@H](CCCC)C(=O)N[C@@H](CCC(=O)O)C(=O)N[C@H](C(=O)NCC(N)=O)CSCC(=O)N[C@@H](Cc2ccc(O)cc2)C(=O)N2CCCC[C@H]2C(=O)N[C@@H](CC(N)=O)C(=O)N2CCC[C@H]2C(=O)N[C@@H](Cc2cnc[nH]2)C(=O)N[C@@H](CCC(N)=O)C(=O)N2C[C@H](O)C[C@H]2C(=O)N[C@@H](Cc2c[nH]c3ccccc23)C(=O)N[C@@H](CO)C(=O)N[C@@H](Cc2c[nH]c3ccccc23)C(=O)N1C` [Example 1250] ({CH2CO}-Y[Pip]NPHQ[Hyp]WSW[NMeNle][NMeNle]ECG-NH2; thioether N-14), the IC50 was 1 to 9.9 nM.

With `CCCC[C@H]1C(=O)N2C[C@H](O)C[C@@H]2C(=O)N[C@@H](CC(=O)O)C(=O)N[C@@H](C(C)C)C(=O)N(C)[C@@H](Cc2ccccc2)C(=O)N[C@@H](CC(=O)O)C(=O)N2C[C@H](O)C[C@@H]2C(=O)N[C@@H](Cc2c[nH]c3ccccc23)C(=O)N[C@@H](Cc2ccc(O)cc2)C(=O)N[C@@H](CCO)C(=O)N[C@H](C(=O)NCC(N)=O)CSCC(=O)N[C@@H](Cc2cc(F)c(F)c(F)c2)C(=O)N(C)[C@@H](Cc2ccccc2)C(=O)N1C` [Example 10173] ({CH2CO}-[Phe(3,4,5-F3)][NMeF][NMeNle][d(cisHyp)]DV[NMeF]D[d(cisHyp)]WY[hSer]CG-NH2; thioether N-13), the IC50 was 10 to 99.9 nM.

For the compound `CCCC[C@H]1C(=O)N(C)[C@@H](C)C(=O)N[C@@H](CCCNC(=N)N)C(=O)NC(C(=O)NCC(N)=O)CSCC(=O)N[C@@H](Cc2ccc(O)cc2)C(=O)N(C)[C@@H](C)C(=O)N[C@@H](CC(N)=O)C(=O)N2CCC[C@H]2C(=O)N[C@@H](CC(N)=O)C(=O)N[C@@H](CC(C)C)C(=O)N2CCC[C@H]2C(=O)N[C@@H](Cc2c[nH]c3ccccc23)C(=O)N[C@@H](CO)C(=O)N[C@@H](Cc2csc3ccccc23)C(=O)N1C` (stereo partly drawn) [Example 9137] ({CH2CO}-Y[NMeA]NPNLPWS[Bta][NMeNle][NMeA]R[ξC]G-NH2; thioether N-14), the IC50 was in the range of 1 to 9.9 nM.

In the case of `CCCC[C@H]1C(=O)N2C[C@H](O)C[C@@H]2C(=O)N[C@@H](CC(=O)O)C(=O)N[C@@H](C(C)C)C(=O)N(C)[C@@H](Cc2ccccc2)C(=O)N[C@@H](CC(=O)O)C(=O)N2C[C@H](O)C[C@@H]2C(=O)N[C@@H](Cc2c[nH]c3ccccc23)C(=O)N[C@@H](Cc2ccc(O)cc2)C(=O)N[C@@H](CCCN)C(=O)N[C@H](C(=O)NCC(N)=O)CSCC(=O)N[C@@H](Cc2cc(F)c(F)c(F)c2)C(=O)N(C)[C@@H](Cc2ccccc2)C(=O)N1C` [Example 9346] ({CH2CO}-[Phe(3,4,5-F3)][NMeF][NMeNle][d(cisHyp)]DV[NMeF]D[d(cisHyp)]WY[Orn]CG-NH2; thioether N-13), the IC50 lay in the range of 1 to 9.9 nM.

(Values after US10538555B2, “Macrocyclic inhibitors of the PD-1/PD-L1 and CD80(B7-1)/PD-L1 protein/protein interactions” (BRISTOL-MYERS SQUIBB COMPANY, priority 2014, dated 2020).)
